IC50 data for 13 compounds are collected here from patent US8097733B2, “Pyrazole derivatives as 5-LO-inhibitors” (Pfizer Inc., priority 2007, dated 2012).

One test deals with T1, recombinant human 5-LOX (Homo sapiens, UniProt P09917).
T1 sequence (P09917 1-674): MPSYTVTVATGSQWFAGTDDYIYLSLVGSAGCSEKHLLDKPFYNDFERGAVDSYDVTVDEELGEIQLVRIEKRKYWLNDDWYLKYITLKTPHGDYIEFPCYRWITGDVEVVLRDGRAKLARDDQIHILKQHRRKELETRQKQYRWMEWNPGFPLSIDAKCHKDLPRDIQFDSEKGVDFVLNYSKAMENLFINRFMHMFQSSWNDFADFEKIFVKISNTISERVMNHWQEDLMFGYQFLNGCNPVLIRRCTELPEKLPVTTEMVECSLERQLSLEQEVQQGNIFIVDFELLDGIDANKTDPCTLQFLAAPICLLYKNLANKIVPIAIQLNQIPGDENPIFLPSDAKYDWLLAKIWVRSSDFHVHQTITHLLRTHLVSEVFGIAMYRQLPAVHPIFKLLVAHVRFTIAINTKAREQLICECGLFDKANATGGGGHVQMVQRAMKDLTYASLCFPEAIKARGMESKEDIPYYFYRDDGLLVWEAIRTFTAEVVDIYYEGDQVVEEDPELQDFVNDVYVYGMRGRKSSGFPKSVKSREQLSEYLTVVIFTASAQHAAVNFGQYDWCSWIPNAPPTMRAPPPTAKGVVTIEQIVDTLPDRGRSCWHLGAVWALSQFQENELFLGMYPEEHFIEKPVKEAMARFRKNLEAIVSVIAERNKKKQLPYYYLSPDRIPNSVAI
Briefly: Fluorescence Intensity 5-LOX Enzyme Assay. The test is classed as biochemical. The conditions noted are these: crude lysate of recombinant human 5-LOX; highest inhibitor concentration tested typically 25 μM. From the text: Bio Data Assays for Allergic and Non Allergic Airways Diseases Fluorescence Intensity 5-LOX Enzyme Assay
The enzyme assay is based on the oxidation of the non-fluorescent compound 2′7′-dichlorodihydrofluorescein diacetate (H2DCFDA) to the fluorescent 2′,7′-dichlorofluorescein by 5-LOX in an arachidonic acid-dependent reaction. Ester cleavage of the acetate groups of the substrate H2DCFDA must occur prior to oxidation. This is achieved through use of a crude cell lysate preparation of recombinant human 5-LOX. The enzyme assay ([…]) contained 50 mM Tris (pH 7.5), 2 mM CaCl2, 2 mM EDTA, 3 μM arachidonic acid (Nu-Chek Prep; #S-1133), 10 μM ATP, 10 μM H2DCFDA (Invitrogen; #D399), inhibitor (varying concentration) and recombinant human 5-LOX enzyme (1.25 μL crude lysate per well).
Inhibitors (dissolved in DMSO) were plated into a 384-well assay plate (Corning #3654) at 1 μL followed by a 20 μL addition of a solution containing 5-LO enzyme and H2DCFDA. Enzyme and H2DCFDA were pre-incubated for 5 min to allow time for acetate group cleavage of the dye prior to addition to the assay plate. After a 10 min pre-incubation of inhibitor and enzyme/dye mix, the assay was initiated by the addition of a substrate solution containing arachidonic acid and ATP. The enzymatic reaction was run for 20 min at room temperature and terminated by the addition of 40 μL of acetonitrile. Assay plates were read in a plate reader using standard wavelengths for fluorescein. IC50s of inhibitors were calculated using a 4-parameter fit using 7 inhibitor concentrations in duplicate with 3-fold serial dilutions. Controls on each plate included no inhibitor (zero percent effect) and 25 μM C J-13610 (one hundred percent effect). The highest inhibitor concentration tested was typically 25 μM. The final DMSO concentration in the assay was 2.5%.

The subject of test [1] is human whole blood (leukotriene and prostaglandin levels). Briefly: Eicosanoid production from human whole blood. In kind it is cell-based. The conditions noted are these: human whole blood stimulated with calcium ionophore A23187 and arachidonic acid; ELISA. The procedure: Human whole blood is collected in 10 ml heparin tubes (Vacutainer, Becton Dickenson). Collected blood is pooled and 80 μL is dispensed into each well of 384 well polypropylene plates. A PlateMate is used to add 2 μL of compound solution in DMSO to the 80 μL of blood in the polypropylene plates. The plate, with blood and compound added, is incubated at room temperature for 10 minutes. 2 μL of a calcimycin (800 ng/ml) (A23187 C-7522, Sigma) and arachidonic acid (30 μM) (NU-Chek PREP, INC. S-1133) solution in 60% ethanol is then added to the blood using a Micromultidrop. The plates are then incubated at 37° C. in a shallow water bath for 15 minutes. Plates are then spun at 800 g for 10 minutes at 4° C. Supernatant is removed and assayed by Elisa (Caymen Chemical).
Eicosanoid Production from Human Whole Blood:
Human whole blood was collected from healthy or asthmatic human donors in 10 ml heparinized tubes (Vacutainer tubes; Becton Dickenson, Franklin Lakes, N.J.). Collected blood was pooled and 80 μL was dispensed into each well of 384 well polypropylene plates using a Multi-prop™ 384-well dispenser (Titertek, Huntsville, Ala.). Varying concentrations of compounds were dissolved in DMSO then 2 μL/well was added to the blood using a PlateMate Plus™ automated pipetting station (Matrix Technologies, Hudson, N.H.). The compounds were preincubated with the blood at room temperature for 10 minutes followed by stimulation with 40 μM calcium ionophore (A23187, Sigma Chemical Co, St. Louis, Mo., Cat. # C-7522) and 30 μM arachidonic acid (S-1133, NU-Chek PREP, Inc., Elysian, MN, Cat. # S-1133) dissolved in 60% ethanol. After 15 min incubation at 37° C. in a shallow water bath, the blood was centrifuged at 8009 for 10 minutes at 4° C., the supernatants collected, and leukotriene and prostaglandin levels measured by ELISA according to the manufacturer's directions (Cayman Chemical Company, Ann Arbor, Mich.). The assay was performed at a final concentration of 2.5% DMSO.
For orientation: In an ELISA, binding on a coated surface is turned into a signal by an enzyme label.

In the case of `Cn1nccc1-c1ccc(Sc2cccc(C3(C(N)=O)CCOCC3)c2F)cc1` [17(7), 4-(2-fluoro-3-{[4-(1-methyl-1H-pyrazol-5-yl)phenyl]thio}-phenyl)tetrahydro-2H-pyran-4-carboxamide], the IC50 was 126 nM on recombinant human 5-LOX and 256 nM in test [1].
Taken in the same sequence, the figures for `Cn1nccc1-c1ccc(Sc2cc(F)cc(C3(C(N)=O)CCOCC3)c2F)cc1` [19(10), 4-(2,5-difluoro-3-{[4-(1-methyl-1H-pyrazol-5-yl)phenyl]-thio}phenyl)tetrahydro-2H-pyran-4-carboxamide] were 50.5 nM and 480 nM.
Regarding `C[C@H]1C[C@@](C#N)(c2ccc(F)c(Sc3ccc(-c4ccnn4C)cc3)c2F)CCO1` [28(2), (2S,4R)-4-(2,4-difluoro-3-(4-(1-methyl-1H-pyrazol-5-yl)phenylthio)phenyl)-2-methyl-tetrahydro-2H-pyran-4-carbonitrile], the IC50 stood at 38.9 nM on recombinant human 5-LOX and 42.2 nM in test [1].
In the case of `NC(=O)C1(c2cccc(Sc3ccc(-c4ccnn4C4CCCC4)cc3)c2)CCOCC1` [Example 3, 4-(3-{[4-(1-cyclopentyl-1H-pyrazol-5-yl)phenyl]thio}phenyl)tetrahydro-2H-pyran-4-carboxamide], the IC50 amounted to 102 nM at recombinant human 5-LOX and 179 nM in test [1].
`NC(=O)C1(c2cccc(Sc3ccc(-c4ccnn4C4CCCCCC4)cc3)c2)CCOCC1` [Example 4, 4-(3-{[4-(1-cycloheptyl-1H-pyrazol-5-yl)phenyl]thio}phenyl)tetrahydro-2H-pyran-4-carboxamide]: the IC50 was found to be 12.5 nM at recombinant human 5-LOX and 260 nM in test [1].
The corresponding values for `NC(=O)C1(c2cccc(Sc3ccc(-c4ccnn4C4CCCCC4)cc3)c2)CCOCC1` [Example 5, 4-(3-{[4-(1-cyclohexyl-1H-pyrazol-5-yl)phenyl]thio}phenyl)tetrahydro-2H-pyran-4-carboxamide] are 15.9 nM and 410 nM.
Consider `NC(=O)C1(c2cccc(Sc3ccc(-c4ccnn4CC4CC4)cc3)c2)CCOCC1` [Example 6, 4-[3-({4-[1-(cyclopropylmethyl)-1H-pyrazol-5-yl]phenyl}thio)phenyl]tetrahydro-2H-pyran-4-carboxamide], for which the IC50 at recombinant human 5-LOX is 86.1 nM; in test [1] it was 225 nM.
Taken in the same sequence, the figures for `NC(=O)C1(c2cccc(Sc3ccc(-c4ccnn4CC4CCCC4)cc3)c2)CCOCC1` [Example 7, 4-[3-({4-[1-(cyclopentylmethyl)-1H-pyrazol-5-yl]phenyl}thio)phenyl]tetrahydro-2H-pyran-4-carboxamide] were 38.6 nM and 78.5 nM.
Regarding `CCn1nccc1-c1ccc(Sc2cccc(C3(C(N)=O)CCOCC3)c2)cc1` [Example 8, 4-(3-{[4-(1-ethyl-1H-pyrazol-5-yl)phenyl]thio}phenyl)tetrahydro-2H-pyran-4-carboxamide], the IC50 was 14 nM on recombinant human 5-LOX and 253 nM in test [1].
Turning to `CC(C)n1nccc1-c1ccc(Sc2cccc(C3(C(N)=O)CCOCC3)c2)cc1` [Example 9], the IC50 on recombinant human 5-LOX was determined as 14.8 nM; in test [1], 208 nM.
On to `Cn1nccc1-c1ccc(Sc2cccc(C3(C(N)=O)CCOCC3)c2)c(F)c1` [Example 12, 4-(3-{[2-Fluoro-4-(1-methyl-1H-pyrazol-5-yl)phenyl]thio}phenyl)tetrahydro-2H-pyran-4-carboxamide], for which the IC50 at recombinant human 5-LOX was found to be 454 nM; in test [1], 267 nM.
Taken in the same sequence, the figures for `Cc1cc(Sc2cccc(C3(C(N)=O)CCOCC3)c2)ccc1-c1ccnn1C` [Example 14, 4-(3-{[3-methyl-4-(1-methyl-1H-pyrazol-5-yl)phenyl]thio}phenyl)tetrahydro-2H-pyran-4-carboxamide] were 110 nM and 447 nM.
The corresponding values for `CNC(=O)C1(c2cc(F)cc(Sc3ccc(-c4ccnn4C)cc3)c2)CCOCC1` [Example 18, 4-(3-fluoro-5-{[4-(1-methyl-1H-pyrazol-5-yl)phenyl]thio}-phenyl)-N-methyltetrahydro-2H-pyran-4-carboxamide] are 369 nM and 596 nM.

By IC50 is commonly meant the concentration that gives 50% inhibition.
